Test results from BindingDB's records for doi:10.7270/Q2NK3CFW (Nmmlsc, 2009).
pEC50: −log10 of the molar value.

Target: Cell division control protein 42 homolog (Homo sapiens, UniProt P60953)
Assay: blockade of fluorescent GTP uptake by Cdc42 wt – biochemical, bead-based multiplex flow cytometry, oxadiazole series, SAR follow-up (AID 2037)
Conditions: not given

Chain of Cell division control protein 42 homolog (P60953 whole entry): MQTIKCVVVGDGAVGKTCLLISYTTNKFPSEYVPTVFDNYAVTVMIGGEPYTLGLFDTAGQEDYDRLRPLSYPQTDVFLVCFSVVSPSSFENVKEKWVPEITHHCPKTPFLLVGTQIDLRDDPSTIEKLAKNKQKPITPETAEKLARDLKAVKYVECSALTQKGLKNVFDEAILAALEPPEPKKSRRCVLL

Compound	pEC50
Cc1ccc(C)c(N2CCN(C(=O)CCc3nc(-c4ccccc4C)no3)CC2)c1	< 4.52
COc1ccc(-c2noc(CCC(=O)N3CCN(c4cccc(Cl)c4)CC3)n2)cc1	< 4.52
Cc1ccc(C)c(N2CCN(C(=O)CCc3nc(-c4ccccc4C(F)(F)F)no3)CC2)c1	5.30
COc1ccc(-c2ccc(CCC(=O)N3CCN(c4cc(C)ccc4C)CC3)s2)cc1	< 4.52
COc1ccc(-c2ccc(CCC(=O)N3CCN(c4cc(C)ccc4C)CC3)[nH]2)cc1 [1-[4-(2,5-dimethylphenyl)piperazin-1-yl]-3-[5-(4-methoxyphenyl)-1H-pyrrol-2-yl]propan-1-one]	< 4.52
COc1ccc(-c2noc(CCC(=O)N3CCN(c4ccccc4Cl)CC3)n2)cc1 [1-[4-(2-chlorophenyl)piperazin-1-yl]-3-[3-(4-methoxyphenyl)-1,2,4-oxadiazol-5-yl]propan-1-one]	6.09
COc1ccc(-c2noc(CCC(=O)N3CCN(c4cccc(Br)c4)CC3)n2)cc1 [1-[4-(3-bromophenyl)-1-piperazinyl]-3-[3-(4-methoxyphenyl)-1,2,4-oxadiazol-5-yl]-1-propanone]	< 4.52
COc1ccc(-c2noc(CCC(=O)N3CCN(c4cccc(F)c4)CC3)n2)cc1 [1-[4-(3-fluorophenyl)piperazin-1-yl]-3-[3-(4-methoxyphenyl)-1,2,4-oxadiazol-5-yl]propan-1-one]	< 4.52
COc1ccc(-c2noc(CCC(=O)N3CCN(c4ccc(Br)cc4)CC3)n2)cc1 [1-[4-(4-bromophenyl)piperazin-1-yl]-3-[3-(4-methoxyphenyl)-1,2,4-oxadiazol-5-yl]propan-1-one]	< 4.52
Cc1ccc(C)c(N2CCN(C(=O)CCc3nc(-c4ccccc4Cl)no3)CC2)c1 [3-[3-(2-chlorophenyl)-1,2,4-oxadiazol-5-yl]-1-[4-(2,5-dimethylphenyl)-1-piperazinyl]-1-propanone]	< 4.52
COc1ccc(-c2noc(CCC(=O)N3CCN(c4ccccc4)CC3)n2)cc1 [3-[3-(4-methoxyphenyl)-1,2,4-oxadiazol-5-yl]-1-(4-phenylpiperazin-1-yl)propan-1-one]	< 4.52
COc1ccc(-c2noc(CCC(=O)N3CCN(c4ccccc4OC)CC3)n2)cc1 [3-[3-(4-methoxyphenyl)-1,2,4-oxadiazol-5-yl]-1-[4-(2-methoxyphenyl)-1-piperazinyl]-1-propanone]	< 4.52
COc1ccc(-c2noc(CCC(=O)N3CCN(c4ccc(C(F)(F)F)cc4)CC3)n2)cc1 [3-[3-(4-methoxyphenyl)-1,2,4-oxadiazol-5-yl]-1-[4-[4-(trifluoromethyl)phenyl]piperazin-1-yl]propan-1-one]	< 4.52
Cc1ccc(C)c(N2CCN(C(=O)CCc3nc(-c4cccc(F)c4)no3)CC2)c1 [KUC103366N]	< 4.52
COc1ccc(-c2noc(CCC(=O)N3CCN(c4ccccc4Br)CC3)n2)cc1 [KUC103370N]	5.64
Cc1ccc(C)c(N2CCN(C(=O)CCc3nc(-c4cccc(C(F)(F)F)c4)no3)CC2)c1 [KUC103380N]	< 4.52
COc1ccc(-c2noc(CCC(=O)N3CCN(c4ccc(F)cc4)CC3)n2)cc1 [KUC103398N]	< 4.52
Cc1ccc(C)c(N2CCN(C(=O)CCc3nc(-c4ccccc4F)no3)CC2)c1 [KUC103401N]	< 4.52
COc1ccc(-c2noc(CCC(=O)N3CCC(c4cc(C)ccc4C)CC3)n2)cc1 [KUC103432N]	5.85
COc1ccc(-c2ccc(CCC(=O)N3CCN(c4cc(C)ccc4C)CC3)o2)cc1 [KUC103447N]	< 4.52
Cc1ccc(C)c(N2CCN(C(=O)CCc3nc(-c4cccc(Cl)c4)no3)CC2)c1 [UNM-0000306086]	5.66
COc1ccc(-c2noc(CCC(=O)N3CCN(c4ccc(Cl)cc4)CC3)n2)cc1 [UNM-0000306121]	< 4.52
COc1ccc(-c2cc(CCC(=O)N3CCN(c4cc(C)ccc4C)CC3)[nH]n2)cc1 [UNM-0000306150]	< 4.52

Now from value to molecule:

pEC50	Compound
5.56	COc1cccc(-c2noc(CCC(=O)N3CCN(c4cc(C)ccc4C)CC3)n2)c1
5.77	COc1ccc(-c2noc(CCC(=O)N3CCN(c4ccccc4C)CC3)n2)cc1
5.36	Cc1ccc(-c2noc(CCC(=O)N3CCN(c4cc(C)ccc4C)CC3)n2)cc1 [1-[4-(2,5-dimethylphenyl)-1-piperazinyl]-3-[3-(4-methylphenyl)-1,2,4-oxadiazol-5-yl]-1-propanone]
< 4.52	COc1ccc(-c2noc(CCCCC(=O)N3CCN(c4cc(C)ccc4C)CC3)n2)cc1 [1-[4-(2,5-dimethylphenyl)-1-piperazinyl]-5-[3-(4-methoxyphenyl)-1,2,4-oxadiazol-5-yl]-1-pentanone]
< 4.52	COc1ccc(-c2noc(CC(=O)N3CCN(c4cc(C)ccc4C)CC3)n2)cc1 [1-[4-(2,5-dimethylphenyl)piperazin-1-yl]-2-[3-(4-methoxyphenyl)-1,2,4-oxadiazol-5-yl]ethanone]
5.99	Cc1cccc(-c2noc(CCC(=O)N3CCN(c4cc(C)ccc4C)CC3)n2)c1 [1-[4-(2,5-dimethylphenyl)piperazin-1-yl]-3-[3-(3-methylphenyl)-1,2,4-oxadiazol-5-yl]propan-1-one]
< 4.52	COc1ccc(-c2cc(CCC(=O)N3CCN(c4cc(C)ccc4C)CC3)on2)cc1 [1-[4-(2,5-dimethylphenyl)piperazin-1-yl]-3-[3-(4-methoxyphenyl)-1,2-oxazol-5-yl]propan-1-one]
5.64	COc1ccc(-c2coc(CCC(=O)N3CCN(c4cc(C)ccc4C)CC3)n2)cc1 [1-[4-(2,5-dimethylphenyl)piperazin-1-yl]-3-[4-(4-methoxyphenyl)-1,3-oxazol-2-yl]propan-1-one]
5.21	COc1ccc(-c2noc(CCCC(=O)N3CCN(c4cc(C)ccc4C)CC3)n2)cc1 [KUC103353N]
5.40	Cc1ccc(C)c(N2CCN(C(=O)CCc3nc(-c4ccccc4)no3)CC2)c1 [UNM-0000306070]
5.76	Cc1ccc(C)c(N2CCN(C(=O)CCc3nc(-c4ccc(Cl)cc4)no3)CC2)c1 [UNM-0000306083]
< 4.52	COc1ccc(-c2noc(CCC(=O)N3CCN(c4cccc(C)c4)CC3)n2)cc1 [UNM-0000306125]

Same assay, conditions: inactive by the depositor's call

Compound	pEC50
COc1ccc(-c2noc(CCC(=O)N3CCN(c4ccccc4F)CC3)n2)cc1 [1-[4-(2-fluorophenyl)piperazin-1-yl]-3-[3-(4-methoxyphenyl)-1,2,4-oxadiazol-5-yl]propan-1-one]	6.18
COc1ccc(-c2noc(CCC(=O)N3CCN(c4cccc(C(F)(F)F)c4)CC3)n2)cc1 [1-{3-[3-(4-methoxyphenyl)-1,2,4-oxadiazol-5-yl]propanoyl}-4-[3-(trifluoromethyl)phenyl]piperazine]	5.72
Cc1ccc(C)c(N2CCN(C(=O)CCc3nc(-c4ccccc4Br)no3)CC2)c1 [3-[3-(2-bromophenyl)-1,2,4-oxadiazol-5-yl]-1-[4-(2,5-dimethylphenyl)-1-piperazinyl]-1-propanone]	5.63
COc1ccc(-c2noc(CCC(=O)N3CCN(c4ccc(OC)cc4)CC3)n2)cc1 [3-[3-(4-methoxyphenyl)-1,2,4-oxadiazol-5-yl]-1-[4-(4-methoxyphenyl)piperazin-1-yl]propan-1-one]	6.35
COc1ccc(-c2noc(CCC(=O)N3CCN(c4cccc(OC)c4)CC3)n2)cc1 [KUC103349N]	4.92
Cc1ccc(C)c(N2CCN(C(=O)CCc3nc(-c4cccc(Br)c4)no3)CC2)c1 [KUC103367N]	5.67
COc1ccccc1-c1noc(CCC(=O)N2CCN(c3cc(C)ccc3C)CC2)n1 [UNM-0000306071]	5.81
COc1ccc(-c2noc(CCC(=O)N3CCN(c4ccccc4C(F)(F)F)CC3)n2)cc1 [UNM-0000306082]	5.70
COc1ccc(-c2cccc(CCC(=O)N3CCN(c4cc(C)ccc4C)CC3)c2)cc1 [UNM-0000306127]	5.43

The next lines start with the values.

pEC50	Compound
5.94	COc1ccc(-c2noc(CCC(=O)N3CCN(c4cccc(C)c4C)CC3)n2)cc1 [1-[4-(2,3-dimethylphenyl)-1-piperazinyl]-3-[3-(4-methoxyphenyl)-1,2,4-oxadiazol-5-yl]-1-propanone]
5.56	COc1ccc(-c2noc(CCC(=O)N3CCN(c4cc(C)ccc4C)CC3)n2)cc1 [1-[4-(2,5-dimethylphenyl)-1-piperazinyl]-3-[3-(4-methoxyphenyl)-1,2,4-oxadiazol-5-yl]-1-propanone]
5.49	Cc1ccc(C)c(N2CCN(C(=O)CCc3nc(-c4ccc(C(F)(F)F)cc4)no3)CC2)c1 [1-[4-(2,5-dimethylphenyl)-1-piperazinyl]-3-[3-[4-(trifluoromethyl)phenyl]-1,2,4-oxadiazol-5-yl]-1-propanone]
6.25	COc1ccc(-c2noc(CCC(=O)N3CCN(c4ccc(C)cc4)CC3)n2)cc1 [3-[3-(4-methoxyphenyl)-1,2,4-oxadiazol-5-yl]-1-[4-(4-methylphenyl)piperazin-1-yl]propan-1-one]
6.44	Cc1ccc(C)c(N2CCN(C(=O)CCc3nc(-c4ccc(F)cc4)no3)CC2)c1 [KUC103364N]
5.92	Cc1ccc(C)c(N2CCN(C(=O)CCc3nc(-c4ccc(N(C)C)cc4)no3)CC2)c1 [KUC103409N]
5.79	Cc1ccc(C)c(N2CCN(C(=O)CCc3nc(-c4ccc(Br)cc4)no3)CC2)c1 [UNM-0000306072]
